Assay results from PubChem BioAssay (NCI).
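Where inhibition never reached the appropriate level, the endpoint shown equals the highest concentration tested. Otherwise, values were interpolated linearly from a five-concentration, 48-hour dose response in 96-well plates. The concentration for 50% growth inhibition is given as GI50. TGI denotes the concentration required for complete inhibition of growth.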

What was measured:
Assay in all cases: growth of human tumour cells (NCI), 48 h
MDA-MB-435 = system: MDA-MB-435
NCI/ADR-RES ovarian = system: NCI/ADR-RES ovarian
PC-3 prostate = system: PC-3 prostate
T-47D breast = system: T-47D breast
DMS 114 small cell lung = system: DMS 114 small cell lung
DMS 273 small cell lung = system: DMS 273 small cell lung
HOP-18 NSCLC = system: HOP-18 NSCLC
LXFL 529 NSCLC = system: LXFL 529 NSCLC
SNB-78 CNS = system: SNB-78 CNS
XF 498 CNS = system: XF 498 CNS

## O=C(/C=C/c1ccccc1)c1c[nH]c2ccccc2c1=O
MDA-MB-435
  GI50: 3.17 µM
  TGI: 13.8 µM
NCI/ADR-RES ovarian
  GI50: 2.93 µM
  TGI: 13 µM
PC-3 prostate
  GI50: 5.63 µM
  TGI: 33.1 µM
T-47D breast
  GI50: 3.05 µM
  TGI: 17.1 µM

## Cc1csc(/C=N/NC(=O)c2nnn(-c3ccnc4c(C(F)(F)F)cccc34)c2C)c1
MDA-MB-435
  GI50: 85.3 µM
  TGI: > 100 µM
NCI/ADR-RES ovarian
  GI50: > 100 µM
  TGI: > 100 µM
PC-3 prostate
  GI50: 41.1 µM
  TGI: > 100 µM
T-47D breast
  GI50: 29.5 µM
  TGI: > 100 µM

## COc1cc2ccccc2c2cc([N+](=O)[O-])oc12
MDA-MB-435
  TGI: 0.733 µM
NCI/ADR-RES ovarian
  TGI: 32.1 µM
PC-3 prostate
  TGI: > 100 µM
T-47D breast
  TGI: > 45.6 µM

## Nc1ncnc2c1ncn2C1OC(CSC(F)(F)F)C(O)C1O (stereo unspecified)
DMS 114 small cell lung
  TGI: > 100 µM
DMS 273 small cell lung
  TGI: > 100 µM
HOP-18 NSCLC
  TGI: > 100 µM
LXFL 529 NSCLC
  TGI: > 100 µM
SNB-78 CNS
  TGI: > 100 µM

## CC[C@@]1(OC(=O)CN)C(=O)OCc2c1cc1n(c2=O)Cc2cc3cc4c(cc3nc2-1)OCO4
MDA-MB-435
  GI50: < 0.0131 µM
  TGI: 0.838 µM
NCI/ADR-RES ovarian
  GI50: < 0.01 µM
  TGI: 0.015 µM
PC-3 prostate
  GI50: 0.0275 µM
  TGI: > 100 µM
T-47D breast
  GI50: < 0.01 µM
  TGI: > 100 µM

## Cc1cc(N2CCN(C)CC2)nc(NCc2cc(Nc3ccnc4cc(Cl)ccc34)ccc2F)n1
MDA-MB-435
  GI50: 1.76 µM
  TGI: 3.9 µM
PC-3 prostate
  GI50: 3.51 µM
  TGI: > 100 µM
T-47D breast
  GI50: 1.09 µM
  TGI: 3.62 µM

## COc1cccc(C(=O)Nc2ccc(CN3CCc4nc5cc(OC)c(OC)cc5cc43)cc2)c1
MDA-MB-435
  GI50: 3.47 µM
  TGI: 19.3 µM
NCI/ADR-RES ovarian
  GI50: 4.48 µM
  TGI: > 100 µM
PC-3 prostate
  GI50: 3.14 µM
  TGI: > 100 µM
T-47D breast
  GI50: 4.49 µM
  TGI: 53.7 µM

## N#CC(C#N)=Cc1c(-c2ccccc2)[nH]c2ccccc12
MDA-MB-435
  GI50: 0.248 µM
  TGI: 0.736 µM
NCI/ADR-RES ovarian
  GI50: 0.82 µM
  TGI: > 45.2 µM
PC-3 prostate
  GI50: 2.9 µM
  TGI: > 70.8 µM
T-47D breast
  GI50: 4.23 µM
  TGI: > 95.1 µM

## O=S(=O)(Nc1cc(Br)c(O)c2ccccc12)c1ccc(F)cc1
MDA-MB-435
  GI50: 1.82 µM
  TGI: 3.3 µM
NCI/ADR-RES ovarian
  GI50: 2.96 µM
  TGI: 8.68 µM
PC-3 prostate
  GI50: 2.93 µM
  TGI: 12.9 µM
T-47D breast
  GI50: 2.58 µM
  TGI: 8.5 µM

## NC1=NC(c2ccc(Cl)cc2)N(c2ccc(S(=O)(=O)Nc3ncccn3)cc2)C(N)=N1 (stereo unspecified)
MDA-MB-435
  TGI: > 100 µM
NCI/ADR-RES ovarian
  TGI: > 100 µM
PC-3 prostate
  TGI: > 100 µM
T-47D breast
  TGI: > 100 µM

## N#CCCN(CCC#N)C(=O)c1cccc(C(=O)N(CCC#N)CCC#N)c1
DMS 114 small cell lung
  TGI: > 100 µM
DMS 273 small cell lung
  TGI: > 100 µM
LXFL 529 NSCLC
  TGI: 19.2 µM
SNB-78 CNS
  TGI: > 100 µM
XF 498 CNS
  TGI: > 100 µM

## [C-]#[O+].[Cl][Sn]([Cl])[Cl].[Cl][Sn]([Cl])[Cl].[Pt].c1ccc([PH+](c2ccccc2)c2ccccc2)cc1.c1ccc([PH+](c2ccccc2)c2ccccc2)cc1
DMS 114 small cell lung
  GI50: 21.8 µM
  TGI: 51.2 µM
DMS 273 small cell lung
  GI50: 46.1 µM
  TGI: > 100 µM
HOP-18 NSCLC
  GI50: 25.3 µM
  TGI: 90 µM
LXFL 529 NSCLC
  GI50: 23.2 µM
  TGI: 82.1 µM
SNB-78 CNS
  GI50: > 100 µM
  TGI: > 100 µM

## CC1=CCC2(C#N)CCC1C2O (stereo unspecified)
DMS 114 small cell lung
  TGI: > 100 µM
DMS 273 small cell lung
  TGI: > 100 µM
HOP-18 NSCLC
  TGI: > 100 µM
LXFL 529 NSCLC
  TGI: > 100 µM
SNB-78 CNS
  TGI: > 100 µM
XF 498 CNS
  TGI: > 100 µM

## COc1cc(/C=N/Nc2ncnc3c2cnn3C(C)C)ccc1O
MDA-MB-435
  GI50: 7.66 µM
  TGI: > 25 µM
NCI/ADR-RES ovarian
  GI50: 6.95 µM
  TGI: > 25 µM
PC-3 prostate
  GI50: 5.07 µM
  TGI: > 25 µM
T-47D breast
  GI50: 5.31 µM
  TGI: > 21.5 µM

## Cc1onc(-c2c(F)cccc2Cl)c1-c1ncc(-c2ccc(Cl)cc2)o1
MDA-MB-435
  GI50: 5.59 µM
  TGI: > 100 µM
NCI/ADR-RES ovarian
  GI50: 5.08 µM
  TGI: > 100 µM
PC-3 prostate
  GI50: 4.21 µM
  TGI: > 100 µM
T-47D breast
  GI50: 3.48 µM
  TGI: > 100 µM

## Cc1cc2cccnc2c2ncccc12
MDA-MB-435
  GI50: 2.15 µM
  TGI: 21.9 µM
NCI/ADR-RES ovarian
  GI50: 0.315 µM
  TGI: 1.84 µM
PC-3 prostate
  GI50: 1.57 µM
  TGI: 34.4 µM
T-47D breast
  GI50: 3.32 µM
  TGI: 21.3 µM

## C/C=C(\C)c1cc(=O)c2c(C)cc3c(c2o1)C(=O)c1c(O)c(C2CC(C)(N(C)C)C(O)C(C)O2)cc(C2CC(N(C)C)C(O)C(C)O2)c1C3=O (stereo unspecified)
DMS 114 small cell lung
  TGI: 4.45 µM
DMS 273 small cell lung
  TGI: 11.4 µM
HOP-18 NSCLC
  TGI: > 100 µM
MDA-MB-435
  TGI: 0.866 µM
PC-3 prostate
  TGI: 1.42 µM
SNB-78 CNS
  TGI: 50.6 µM
T-47D breast
  TGI: 3.12 µM

## CN(Cc1cnc(N)nc1N)c1ccc(C(=O)O)cc1
MDA-MB-435
  GI50: > 100 µM
  TGI: > 100 µM
NCI/ADR-RES ovarian
  GI50: > 100 µM
  TGI: > 100 µM
PC-3 prostate
  GI50: > 100 µM
  TGI: > 100 µM
T-47D breast
  GI50: > 100 µM
  TGI: > 100 µM

## O=C(/C=C1\C(=O)N(Cc2ccc([N+](=O)[O-])cc2)c2ccccc21)c1ccc(OCCN2CCCCC2)cc1
MDA-MB-435
  GI50: 1.2 µM
  TGI: 2.52 µM
NCI/ADR-RES ovarian
  GI50: 2.04 µM
  TGI: 5.76 µM
PC-3 prostate
  GI50: 1.74 µM
  TGI: 3.52 µM

## CN(CCC#N)c1ccc(/C=C(\C#N)c2cccc(C(F)(F)F)c2)cc1
MDA-MB-435
  GI50: 2.07 µM
  TGI: 6 µM
NCI/ADR-RES ovarian
  GI50: 3.68 µM
  TGI: > 100 µM
PC-3 prostate
  GI50: 4.07 µM
  TGI: > 100 µM
T-47D breast
  GI50: 2.25 µM
  TGI: > 100 µM

## CNC(=S)N/N=C1\CC(c2ccccc2)Oc2ccccc21 (stereo unspecified)
DMS 273 small cell lung
  TGI: > 100 µM
LXFL 529 NSCLC
  TGI: > 100 µM
SNB-78 CNS
  TGI: > 100 µM

## COc1ccc(Cl)cc1Nc1nc(C(F)(F)F)ccc1C(=O)N/N=C/c1ccc([N+](=O)[O-])cc1
MDA-MB-435
  GI50: 2.66 µM
  TGI: 13.1 µM
NCI/ADR-RES ovarian
  GI50: 2.25 µM
  TGI: 6.7 µM
T-47D breast
  GI50: 1.81 µM
  TGI: 7.75 µM

## CCNC(C)(C)C(SS)c1ccc(Br)cc1 (stereo unspecified)
MDA-MB-435
  TGI: > 100 µM
NCI/ADR-RES ovarian
  TGI: > 100 µM
PC-3 prostate
  TGI: > 100 µM
T-47D breast
  TGI: 93.6 µM

## CC1(C)C(c2ccccc2)=NN(O)c2ccccc21
DMS 273 small cell lung
  TGI: > 100 µM
HOP-18 NSCLC
  TGI: > 100 µM
LXFL 529 NSCLC
  TGI: > 100 µM
SNB-78 CNS
  TGI: > 100 µM

## Cc1c(C)c2c(c(C)c1NC(=O)/C=C\C(=O)O)CCC(C)(CCCC(C)CCCC(C)CCCC(C)C)O2 (stereo unspecified)
MDA-MB-435
  GI50: 1.67 µM
  TGI: 3.44 µM
NCI/ADR-RES ovarian
  GI50: 2.54 µM
  TGI: 7.46 µM
PC-3 prostate
  GI50: 1.38 µM
  TGI: 2.91 µM
T-47D breast
  GI50: 2.02 µM
  TGI: 4.78 µM
